Four compounds from ChEMBL document CHEMBL1201862, “PubChem BioAssay data set” (2004) can be followed below.

Test [1] has as its target T1, RNA-binding protein pos-1 (Caenorhabditis elegans, UniProt G5EF15).
T1 sequence (G5EF15 whole entry): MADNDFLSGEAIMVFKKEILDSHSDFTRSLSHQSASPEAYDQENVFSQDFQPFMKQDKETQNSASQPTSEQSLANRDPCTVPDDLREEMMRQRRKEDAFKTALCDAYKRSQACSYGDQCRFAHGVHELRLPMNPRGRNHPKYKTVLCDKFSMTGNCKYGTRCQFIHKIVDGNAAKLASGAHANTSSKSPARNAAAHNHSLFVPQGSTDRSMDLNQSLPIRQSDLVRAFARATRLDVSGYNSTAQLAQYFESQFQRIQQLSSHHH
As to the kind of experiment: disruptors of C. elegans POS-1 RNA interaction – biochemical, fluorescence polarization, dose response (AID 1964).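 Also: purified POS-1 fused to maltose binding protein made in E. coli; potency of compounds blocking POS-1 binding to fluorescent RNA.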

The nature of test [2]: Trypanosoma cruzi growth suppression in host cells – NIH3T3 host cells, beta-gal luminescence, confirmation (AID 2044).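 Also: intracellular parasites grown in NIH/3T3 mouse fibroblasts as host cells; luminescent beta-galactosidase reporter signal from transgenic T. cruzi replicating inside host cells; inhibitors lower the luminescence signal.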 The test is classed as functional, cell-based.
The nature of test [3]: NIH3T3 cell viability loss – ATP luminescence, mouse fibroblasts, counter-screen, dose response (AID 2010).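 Also: cells exposed to compound for about 90 hours before reading.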 The class given is functional, cell-based. Background: A counterscreen serves to expose hits that act by an unwanted route or on another target.
The nature of test [4]: Luminescence Cell-Based Dose Response HTS to Identify Inhibitors of 5'UTR Stem-Loop Driven Prion Protein mRNA Translation in H4 Neuroglioblastoma Cells. [Related pubchem assays: 1827 (Project Summary), 1813 (Primary HTS)]. The class given is functional.
Test [5] has as its target T2, Replicative DNA helicase DnaB (Mycobacterium tuberculosis, UniProt P9WMR3).
T2 sequence (P9WMR3 whole entry): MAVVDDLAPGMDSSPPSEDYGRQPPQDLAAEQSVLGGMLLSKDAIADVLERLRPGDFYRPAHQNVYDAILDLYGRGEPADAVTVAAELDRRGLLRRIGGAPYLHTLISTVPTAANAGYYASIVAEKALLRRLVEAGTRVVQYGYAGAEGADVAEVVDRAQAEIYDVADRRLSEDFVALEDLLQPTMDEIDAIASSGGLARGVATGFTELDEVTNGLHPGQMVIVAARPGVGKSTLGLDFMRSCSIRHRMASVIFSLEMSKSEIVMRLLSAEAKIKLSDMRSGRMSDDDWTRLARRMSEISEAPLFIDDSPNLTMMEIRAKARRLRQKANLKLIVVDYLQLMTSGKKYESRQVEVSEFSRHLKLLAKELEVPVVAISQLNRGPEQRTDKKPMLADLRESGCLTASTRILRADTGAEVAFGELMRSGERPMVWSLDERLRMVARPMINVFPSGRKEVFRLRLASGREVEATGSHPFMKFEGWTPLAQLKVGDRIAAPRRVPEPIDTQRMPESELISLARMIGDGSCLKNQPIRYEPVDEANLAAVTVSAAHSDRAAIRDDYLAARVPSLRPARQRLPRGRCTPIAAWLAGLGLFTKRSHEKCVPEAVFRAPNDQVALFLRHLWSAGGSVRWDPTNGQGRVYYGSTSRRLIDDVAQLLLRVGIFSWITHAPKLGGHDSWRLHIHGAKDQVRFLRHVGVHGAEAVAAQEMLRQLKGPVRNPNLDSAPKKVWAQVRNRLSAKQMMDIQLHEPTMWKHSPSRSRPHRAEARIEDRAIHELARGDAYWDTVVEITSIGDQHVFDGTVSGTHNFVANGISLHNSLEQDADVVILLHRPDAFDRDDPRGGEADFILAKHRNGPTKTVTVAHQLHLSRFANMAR
Kind of test: DnaB intein splicing inhibitors, dose response, biochemical, cell-free fluorescence (AID 449749). The test is classed as functional.

Test [6] can be described thus: luciferase reporter signal suppression in cells – H4 neuroglioma cells, luminescence, dose response (AID 1990). The test is classed as functional, cell-based. (In a reporter assay the amount or activity of a reporter protein is the signal.)
A short description of test [7]: alpha-synuclein stem-loop luciferase translation blockers – H4 neuroglioma cells, luminescence, confirmation (AID 1988). The class given is functional, cell-based.
For a further test, the target named is T3, Protein RecA (Mycobacterium tuberculosis, UniProt P9WHJ3).
T3 sequence (P9WHJ3 whole entry): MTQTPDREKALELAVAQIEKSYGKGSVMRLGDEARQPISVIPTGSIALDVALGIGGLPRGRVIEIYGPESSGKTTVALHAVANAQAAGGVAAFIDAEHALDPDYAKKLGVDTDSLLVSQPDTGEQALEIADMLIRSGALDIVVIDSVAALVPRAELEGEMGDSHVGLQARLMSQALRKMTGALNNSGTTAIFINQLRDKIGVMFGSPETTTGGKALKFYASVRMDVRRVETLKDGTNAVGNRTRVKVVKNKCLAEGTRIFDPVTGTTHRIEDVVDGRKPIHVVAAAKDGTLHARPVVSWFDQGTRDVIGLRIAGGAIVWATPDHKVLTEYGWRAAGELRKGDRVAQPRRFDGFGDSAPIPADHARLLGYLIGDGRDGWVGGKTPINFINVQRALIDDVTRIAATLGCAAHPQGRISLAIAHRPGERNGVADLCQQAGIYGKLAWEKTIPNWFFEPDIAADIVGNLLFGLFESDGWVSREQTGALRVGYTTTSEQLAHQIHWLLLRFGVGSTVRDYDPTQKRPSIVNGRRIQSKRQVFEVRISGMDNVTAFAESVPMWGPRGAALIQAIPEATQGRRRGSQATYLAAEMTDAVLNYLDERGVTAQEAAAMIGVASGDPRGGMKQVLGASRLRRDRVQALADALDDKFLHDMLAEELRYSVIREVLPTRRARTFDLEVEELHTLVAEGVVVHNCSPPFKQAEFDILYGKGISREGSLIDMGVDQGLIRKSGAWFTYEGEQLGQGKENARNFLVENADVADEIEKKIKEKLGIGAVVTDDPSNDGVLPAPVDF
As to the kind of experiment: Fluorescence Cell-Free Homogeneous Dose Retest to Identify Inhibitors of RecA-Intein Splicing Activity. [Related pubchem assays (depositor defined):AID2097, AID2223, AID489010, AID492950]. The class given is functional.

Test [8] concerns the target Induced myeloid leukemia cell differentiation protein Mcl-1 (Homo sapiens, UniProt Q07820). The test is classed as functional.
Test [9] has as its target T4, Mannose-6-phosphate isomerase (Homo sapiens, UniProt P34949).
T4 sequence (P34949 whole entry): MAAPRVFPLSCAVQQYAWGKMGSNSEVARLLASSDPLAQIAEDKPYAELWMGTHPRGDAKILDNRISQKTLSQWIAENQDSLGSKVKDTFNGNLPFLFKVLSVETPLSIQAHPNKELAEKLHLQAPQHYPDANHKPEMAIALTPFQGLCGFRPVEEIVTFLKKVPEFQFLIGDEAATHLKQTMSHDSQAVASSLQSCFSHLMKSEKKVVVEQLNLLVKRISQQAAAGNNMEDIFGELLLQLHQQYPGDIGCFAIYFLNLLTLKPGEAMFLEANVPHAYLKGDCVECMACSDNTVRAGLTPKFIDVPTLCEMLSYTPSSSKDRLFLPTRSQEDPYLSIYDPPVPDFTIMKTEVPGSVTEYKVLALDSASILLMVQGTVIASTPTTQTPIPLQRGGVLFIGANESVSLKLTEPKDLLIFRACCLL
As to the kind of experiment: MPI inhibition at elevated mannose 6-phosphate – biochemical, fluorescence intensity, high mannose 6-phosphate, primary screen (AID 1220).

The target of test [10] is T5, Zinc finger protein mex-5 (Caenorhabditis elegans, UniProt Q9XUB2).
T5 sequence (Q9XUB2 whole entry): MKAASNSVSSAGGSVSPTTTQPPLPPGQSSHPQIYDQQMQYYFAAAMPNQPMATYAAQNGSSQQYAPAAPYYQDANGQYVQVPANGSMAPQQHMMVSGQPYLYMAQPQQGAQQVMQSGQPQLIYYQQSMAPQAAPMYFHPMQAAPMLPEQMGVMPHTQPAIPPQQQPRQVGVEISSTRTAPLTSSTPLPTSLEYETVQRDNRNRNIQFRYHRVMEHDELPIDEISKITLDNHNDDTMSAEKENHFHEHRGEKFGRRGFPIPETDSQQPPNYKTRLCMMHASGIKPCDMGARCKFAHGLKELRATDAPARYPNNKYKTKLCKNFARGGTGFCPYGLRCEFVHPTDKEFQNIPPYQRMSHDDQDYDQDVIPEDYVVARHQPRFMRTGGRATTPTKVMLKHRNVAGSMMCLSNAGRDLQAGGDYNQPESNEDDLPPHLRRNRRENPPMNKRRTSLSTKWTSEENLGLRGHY
As to the kind of experiment: potency of MEX-5 RNA-binding blockers – biochemical, C. elegans, fluorescence polarization, dose response (AID 1960). Background: Polarisation of emitted light reports the rotation of a fluorescent probe.

A further test has as its target Estrogen receptor beta (Homo sapiens, UniProt Q92731).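 Also: recombinant ER-beta bound to coactivator SRC1 peptide in presence of estradiol agonist; inhibitors block coactivator peptide binding and lower the FRET signal.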

Active and inactive are the calls of the source. Rule as the data show it, for most assays here: actives have a measured EC50 and inactives only a lower limit.

Estrogen receptor beta, sequence (Q92731 whole entry): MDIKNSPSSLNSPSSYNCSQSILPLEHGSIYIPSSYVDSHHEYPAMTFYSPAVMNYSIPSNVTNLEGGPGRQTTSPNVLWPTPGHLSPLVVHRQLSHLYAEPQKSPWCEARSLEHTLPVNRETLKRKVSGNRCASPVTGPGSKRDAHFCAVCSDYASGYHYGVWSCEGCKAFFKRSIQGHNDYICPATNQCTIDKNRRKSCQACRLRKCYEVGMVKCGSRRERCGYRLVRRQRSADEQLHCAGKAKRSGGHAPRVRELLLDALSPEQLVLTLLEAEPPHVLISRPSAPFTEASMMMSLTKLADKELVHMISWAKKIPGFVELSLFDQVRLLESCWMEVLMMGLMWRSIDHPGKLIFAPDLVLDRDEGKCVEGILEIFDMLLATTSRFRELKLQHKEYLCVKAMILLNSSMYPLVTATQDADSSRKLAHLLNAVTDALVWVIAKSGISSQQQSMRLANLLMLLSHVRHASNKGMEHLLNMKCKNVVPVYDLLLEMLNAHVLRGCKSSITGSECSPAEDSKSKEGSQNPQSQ
Induced myeloid leukemia cell differentiation protein Mcl-1, sequence (Q07820 whole entry): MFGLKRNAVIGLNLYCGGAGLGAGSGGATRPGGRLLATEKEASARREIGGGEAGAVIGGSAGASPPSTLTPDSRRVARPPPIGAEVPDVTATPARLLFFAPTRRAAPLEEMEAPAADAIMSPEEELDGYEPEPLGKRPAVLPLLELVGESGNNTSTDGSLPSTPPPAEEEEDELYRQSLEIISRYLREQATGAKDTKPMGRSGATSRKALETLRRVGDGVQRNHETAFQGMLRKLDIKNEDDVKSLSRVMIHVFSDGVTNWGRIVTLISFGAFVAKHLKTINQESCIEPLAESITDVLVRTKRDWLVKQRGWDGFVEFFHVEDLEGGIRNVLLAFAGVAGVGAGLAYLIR

Turning to `CN1C=C/C(=C\c2cc[n+](C)c3ccccc23)c2ccccc21`, the EC50 was 65.7 µM (active) in test [1]; < 0.1 µM (active) in [2]; < 0.004 µM (active) in “cells”; > 60 µM (not active) in test [3]; 8.89 µM (active) in test [4]; 9.17 µM (active) in test [6]. In addition, the EC50 was 6.93 µM (active) in test [7], 1.48 µM (active) on Protein RecA and 40 µM (inconclusive) in test [10]. In test [5], the AC50 was 121 µM (active). Moreover, the IC50 in test [8] was 13 µM (active); in [9] it was > 50 µM (not active).
On to `Cc1cc(S(=O)(=O)N(Cc2ccc(F)cc2)CC2CCCO2)ccc1-n1cnnn1` (configuration not stated), for which the IC50 against Estrogen receptor beta is listed as > 50 µM (not active).
The same measure, in the same setting: next, `O=C(CSc1nnc(-c2cccnc2)n1-c1ccccc1)Nc1ccc2c(c1)OCO2`: > 50 µM (not active).
Consider `CCOC(=O)C1CCCN(Cc2ccc(-c3ccccc3)cc2)C1` (configuration not stated), for which the EC50 is < 0.1 µM (active) in [2], 0.429 µM (active) in “cells” and > 60 µM (not active) in test [3].

As usually defined, the EC50 is the concentration needed to bring the measured effect to its halfway point. By AC50 is commonly meant the concentration at which the activity in the assay is half-maximal. The term IC50 denotes the midpoint of a concentration-inhibition curve.
